From patent publication US20260232767A1, “INTERLEUKIN-23 RECEPTOR ANTAGONIST PEPTIDES FOR USE IN THE TREATMENT OF PSORIASIS” (Janssen Pharmaceutica NV, priority 2023, published 2026)

Tested on: subjects with moderate-to-severe plaque psoriasis
Experiment: PASI response, Example 2 long-term extension to Week 52
Type: in vivo, human
Settings: for Change from Baseline in PASI Total Score, LSMean: MMRM model; for Subjects achieving 100% Improvement at Week 52 (PASI) / Subjects achieving ≥75% Improvement at Week 52 (PASI 75 Response) / Subjects achieving ≥90% Improvement at Week 52 (PASI): non-responder imputation
Excerpt: Described below is a multicenter, long-term extension (LTE), double-blind, dose-ranging, parallel group interventional study in participants from Example 1 to evaluate the long-term efficacy and safety of the hydrochloride salt of the compound of Formula (I) for the treatment of moderate-to-severe plaque psoriasis. Patients from Example 1 continued to receive the same dose of the compound of Formula (I) for an additional 36-week treatment period with a 4-week safety follow up period after the last administration of the compound of Formula (I). Patients randomized to placebo in Example 1 received the compound of Formula (I) at a dose of 100 mg QD starting at Week 16 of Example 1 (FIG. 21).
The primary efficacy endpoint is the proportion of participants achieving a PASI 75 response at Week 52, defined as at least a […] reduction from baseline PASI of Example 1. For primary analysis, composite strategy (non-responder imputation) was applied to address intercurrent event #1 (Discontinuation of study intervention due to lack of efficacy or due to an AE of worsening of psoriasis) and […] (initiation of a protocol-prohibited medication or therapy that could improve psoriasis); treatment policy strategy (observed data) was applied to intercurrent event #3 (Discontinuation of study intervention due to other reasons). Participants with missing data after application of ICEs are considered as non-responders.
Since there was no control arm (after week 16), in this primary analysis, only the proportion of participants who achieved a PASI75 response and its […] confidence interval at Week 52 were summarized for each intervention group.

## CC(=O)NCCCC[C@@H]1NC(=O)[C@H](Cc2c[nH]c3c(C)cccc23)NC(=O)[C@H]([C@@H](C)O)NC(=O)[C@H](CC(N)=O)NC(=O)[C@@H](NC(C)=O)C(C)(C)SSC(C)(C)[C@@H](C(=O)N[C@@H](Cc2ccc(OCCN)cc2)C(=O)N[C@@H](Cc2ccc3ccccc3c2)C(=O)NC2(C(=O)N[C@@H](CCC(=O)O)C(=O)N[C@@H](CC(N)=O)C(=O)N[C@@H](Cc3cccnc3)C(=O)N(C)CC(N)=O)CCOCC2)NC1=O [IL-23 receptor antagonist peptide, Ac-[Pen]*-N-T-[W(7-Me)]-[Lys(Ac)]-[Pen]*-Phe[4-(2-aminoethoxy)]-[2-Nal]-[THP]-E-N-[3-Pal]-Sarc-NH2 (*[Pen]-[Pen]* formdisulfidebond)]
25 mg BID, Week 1
  Change from Baseline in PASI Total Score, Mean: −1.20
  Change from Baseline in PASI Total Score, Median: −0.80
  Change from Baseline in PASI Total Score, LSMean: −1.4
25 mg BID, Week 2
  Change from Baseline in PASI Total Score, Mean: −3.65
  Change from Baseline in PASI Total Score, Median: −3.20
  Change from Baseline in PASI Total Score, LSMean: −3.8
25 mg BID, Week 4
  Change from Baseline in PASI Total Score, Mean: −6.26
  Change from Baseline in PASI Total Score, Median: −6.30
  Change from Baseline in PASI Total Score, LSMean: −6.7
25 mg BID, Week 8
  Change from Baseline in PASI Total Score, Mean: −9.72
  Change from Baseline in PASI Total Score, Median: −9.90
  Change from Baseline in PASI Total Score, LSMean: −10.2
25 mg BID, Week 12
  Change from Baseline in PASI Total Score, Mean: −11.46
  Change from Baseline in PASI Total Score, Median: −12.30
  Change from Baseline in PASI Total Score, LSMean: −11.9
25 mg BID, Week 16
  Change from Baseline in PASI Total Score, Mean: −12.73
  Change from Baseline in PASI Total Score, Median: −12.70
  Change from Baseline in PASI Total Score, LSMean: −13.0
25 mg BID, Week 20
  Change from Baseline in PASI Total Score, Mean: −13.50
  Change from Baseline in PASI Total Score, Median: −13.60
  Change from Baseline in PASI Total Score, LSMean: −13.7
25 mg BID, Week 24
  Change from Baseline in PASI Total Score, Mean: −13.64
  Change from Baseline in PASI Total Score, Median: −13.55
  Change from Baseline in PASI Total Score, LSMean: −13.5
25 mg BID, Week 28
  Change from Baseline in PASI Total Score, Mean: −14.33
  Change from Baseline in PASI Total Score, Median: −14.40
  Change from Baseline in PASI Total Score, LSMean: −14.5
25 mg BID, Week 32
  Change from Baseline in PASI Total Score, Mean: −14.36
  Change from Baseline in PASI Total Score, Median: −14.30
  Change from Baseline in PASI Total Score, LSMean: −14.6
25 mg BID, Week 40
  Change from Baseline in PASI Total Score, Mean: −13.58
  Change from Baseline in PASI Total Score, Median: −14.10
  Change from Baseline in PASI Total Score, LSMean: −13.9
25 mg BID, Week 52
  Change from Baseline in PASI Total Score, Mean: −13.24
  Change from Baseline in PASI Total Score, Median: −13.75
  Subjects achieving PASI 75: 24 (28.5%)
  Change from Baseline in PASI Total Score, LSMean: −13.6
  Subjects achieving 100% Improvement at Week 52 (PASI): (17.1%)
  Subjects achieving ≥75% Improvement at Week 52 (PASI 75 Response): 24 (58.5%)
  Subjects achieving ≥90% Improvement at Week 52 (PASI): (36.6%)
25 mg QD, Week 1
  Change from Baseline in PASI Total Score, Mean: −2.25
  Change from Baseline in PASI Total Score, Median: −0.80
  Change from Baseline in PASI Total Score, LSMean: −2.4
25 mg QD, Week 2
  Change from Baseline in PASI Total Score, Mean: −4.50
  Change from Baseline in PASI Total Score, Median: −4.00
  Change from Baseline in PASI Total Score, LSMean: −4.5
25 mg QD, Week 4
  Change from Baseline in PASI Total Score, Mean: −6.50
  Change from Baseline in PASI Total Score, Median: −5.60
  Change from Baseline in PASI Total Score, LSMean: −6.7
25 mg QD, Week 8
  Change from Baseline in PASI Total Score, Mean: −9.39
  Change from Baseline in PASI Total Score, Median: −7.70
  Change from Baseline in PASI Total Score, LSMean: −9.5
25 mg QD, Week 12
  Change from Baseline in PASI Total Score, Mean: −10.71
  Change from Baseline in PASI Total Score, Median: −9.20
  Change from Baseline in PASI Total Score, LSMean: −10.8
25 mg QD, Week 16
  Change from Baseline in PASI Total Score, Mean: −12.76
  Change from Baseline in PASI Total Score, Median: −12.20
  Change from Baseline in PASI Total Score, LSMean: −12.0
25 mg QD, Week 20
  Change from Baseline in PASI Total Score, Mean: −14.01
  Change from Baseline in PASI Total Score, Median: −13.70
  Change from Baseline in PASI Total Score, LSMean: −13.2
25 mg QD, Week 24
  Change from Baseline in PASI Total Score, Mean: −13.56
  Change from Baseline in PASI Total Score, Median: −14.30
  Change from Baseline in PASI Total Score, LSMean: −12.8
25 mg QD, Week 28
  Change from Baseline in PASI Total Score, Mean: −13.35
  Change from Baseline in PASI Total Score, Median: −14.60
  Change from Baseline in PASI Total Score, LSMean: −13.3
25 mg QD, Week 32
  Change from Baseline in PASI Total Score, Mean: −14.06
  Change from Baseline in PASI Total Score, Median: −15.50
  Change from Baseline in PASI Total Score, LSMean: −13.6
25 mg QD, Week 40
  Change from Baseline in PASI Total Score, Mean: −13.70
  Change from Baseline in PASI Total Score, Median: −15.25
  Change from Baseline in PASI Total Score, LSMean: −13.1
25 mg QD, Week 52
  Change from Baseline in PASI Total Score, Mean: −13.55
  Change from Baseline in PASI Total Score, Median: −14.55
  Subjects achieving PASI 75: 21 (48.8%)
  Change from Baseline in PASI Total Score, LSMean: −12.9
  Subjects achieving 100% Improvement at Week 52 (PASI): (14.0%)
  Subjects achieving ≥75% Improvement at Week 52 (PASI 75 Response): 21 (48.8%)
  Subjects achieving ≥90% Improvement at Week 52 (PASI): (27.9%)
50 mg QD, Week 1
  Change from Baseline in PASI Total Score, Mean: −3.10
  Change from Baseline in PASI Total Score, Median: −1.80
  Change from Baseline in PASI Total Score, LSMean: −3.1
50 mg QD, Week 2
  Change from Baseline in PASI Total Score, Mean: −5.74
  Change from Baseline in PASI Total Score, Median: −4.30
  Change from Baseline in PASI Total Score, LSMean: −5.7
50 mg QD, Week 4
  Change from Baseline in PASI Total Score, Mean: −8.25
  Change from Baseline in PASI Total Score, Median: −7.85
  Change from Baseline in PASI Total Score, LSMean: −8.2
50 mg QD, Week 8
  Change from Baseline in PASI Total Score, Mean: −11.41
  Change from Baseline in PASI Total Score, Median: −11.85
  Change from Baseline in PASI Total Score, LSMean: −11.3
50 mg QD, Week 12
  Change from Baseline in PASI Total Score, Mean: −12.96
  Change from Baseline in PASI Total Score, Median: −14.25
  Change from Baseline in PASI Total Score, LSMean: −12.8
50 mg QD, Week 16
  Change from Baseline in PASI Total Score, Mean: −14.56
